Data set [1] concerns Hypercholesterolemic Rats. On the set-up: species or system Wistar rats. As to conditions: rat, in vivo.
Data set [2] relates to male Wistar rats. As to conditions: rat, in vivo.

The structures appear in SMILES notation.

In the case of `CN(C)C(=O)Oc1cccc([N+](C)(C)C)c1` [Neostigmine bromide], in data set [1], the LDL-cholesterol is 76.6 ± 10.7 mg % and the Total cholesterol was determined as 131.2 ± 11.8 mg %. In data set [2], the “Acute toxicity: state of the rats after administration” value is given as “all the rats were dead”.

These data come from patent publication US4661502A (priority 1983, dated 1987).
